From US20260256889A1, “Pharmaceutical formulations comprising a cyclodextrin” (Novo Nordisk A/S, priority 2021, published 2026)

Assay: Optimal pH (chemical and physical stability across the pH range)
Assay type: physicochemical
Excerpt: (§1) The person skilled in the art can easily find the amylin receptor agonist's optimal pH by testing its chemical and physical stability, in an aqueous solution essentially consisting of the amylin receptor agonist, a buffer and water for injection, across the pH range.
as §1, with “GLP-1” for “amylin”, “range. The physical stability of the GLP-1 receptor agonist may be a reflection of its isoelectric point, which may coincide with the pH where poorest physical stability might be expected.” for “range.”

pH at which optimally stable: 7.4
Substance: N^6.26-{18-[N-(17-carboxyheptadecanoyl)-L-γ-glutamyl]-10-oxo-3,6, 12, 15-tetraoxa-9,18-diazaoctadecanoyl}-[8-(2-amino-2-propanoic acid),34-L-arginine] human glucagon-like peptide 1 (7-37) [Semaglutide]
